Article PMC6698794, “Catalytic Knockdown of miR-21 by Artificial Ribonuclease: Biological Performance in Tumor Model” (Frontiers in Pharmacology, 2019)

Key:
miR-21 = miR-21 level in transfected RLS40 cells by PCR analysis; type: cell-based, mouse
Procedure: RLS40 ascites were taken from CBA mice intraperitoneally injected with tumor cells (2 × 10^6 in 0.2 ml buffered saline) into their abdominal cavities. RLS40 cells, isolated from ascites fluid by filtration through LSM were divided into seven portions: 1) untreated cells; 2) the cells incubated with Lipofectamine; the cells transfected with 1 µM of 3) h-ODN, 4) 2′-OMe, 5) Inh, 6) miR-21-miRNase, or 7) luc-POC each. After 4 h of transfection, cell suspensions (0.1 ml, 2 × 10^6 cells) were intramuscularly inoculated into the right lower limb of CBA mice for solid tumor development. As soon as tumors began to be palpable, the tumor volumes were measured every 2–3 days using calipers. Tumor volumes were calculated as V = (π/6 × length × width × height). Hepatic index was estimated as (liver weight/mouse weight) × 100% and as 5.0% for healthy CBA mice. Tumor doubling time (DT) was estimated as DT = (t − t0) × ln 2/(ln V − ln V0), where (t − t0) indicates the length of time between two measurements of tumor size and V0 and V denote the tumor volume at two points of the measurement ([Ozono et al., 2004]).
Supplementary Figure 3. Expression level of miR-21 and PTEN and PDCD4 protein level in RLS40 cells after transfection with 1 µM of luc-POC or miR-21-miRNase using LipofectamineTM 2000. (A) Expression level of miR-21 24 h after transfection. The expression of miRNAs was normalized to U6. […]

B16 melanoma cells = test: Annexin V-FITC/PI apoptosis assay; type: cell-based, mouse
Procedure: B16 cells were pre-seeded (2 × 10^5 per well of 24-well plates) in DMEM/10% FBS a day before transfection. Medium was replaced with serum-free DMEM, prior to incubation for 4 h with h-ODN, 2′-OMe, Inh (hsa-miR-21 5 p inhibitor, Ambion, USA), miR-21-miRNase, or luc-POC, each (0.1 or 1 µM) pre-complexed with Lipofectamine (Thermo Fisher Scientific, USA) in Opti-MEM medium (Thermo Fisher Scientific, USA) according to manufacturer’s instructions, then cells were cultivated in fresh culture standard medium for 24–72 h.
At 24, 48, and 72 h after transfection, cells were harvested, washed twice with PBS, resuspended in Binding Buffer to a density of 2–5 × 10^5/ml, and incubated with annexin V-FITC and propidium iodide (PI) (ab14085, Abcam, UK) in the dark at room temperature for 15 min, prior to flow cytometry analysis (Novocyte CEA Biosciences, USA).
Figure 2 Biological effect of the miR-21-specific miRNase. (A) Apoptotic profile of B16 melanoma cells after transfection with miR-21-miRNase and control luc-POC. Cytofluorimetric analysis of cells after staining with Annexin V-FITC/PI 48 h after transfection with miRNase or luc-POC (1 µM) in complex with Lipofectamine2000. Q1—population of living cells; Q2—Annexin V-FITC+/PI-, early apoptosis; Q3—Annexin V-FITC+/PI+, late apoptosis; Q4—Annexin V-FITC-/PI+, necrosis. (B) Average percentage of apoptotic (early and late apoptosis) and necrotic B16 cell population. Data represent mean ± s.e. of four independent experiments.(C, D) Invasion activity of B16 cells after incubation with Lipofectamine (LF) alone or treated with either hairpin antisense oligonucleotide (h-ODN), hairpin 2′-OMe oligonucleotide (2′-OMe), commercial miR-21 inhibitor (Inh), miR-21-miRNase, and control conjugate (luc-POC) in the concentration of 1 µM. Migration of cells was recorded in real time using the xCELLigence cell analysis system. Control—B16 cells without treatment. Data represent mean ± s.d. of four independent experiments.

[1] = Nuclease resistance assay in DMEM with 10% fetal bovine serum; type: in vitro ADME; settings: 0.1 µg/µl, DMEM with 10% FBS, 37°C; 12% PAAG/8M urea gel, Stains-All
Procedure: Oligonucleotides or conjugates (0.1 µg/µl) were incubated at 37°C in Dulbecco’s Modified Eagle Medium (DMEM) (Sigma, USA) with 10% fetal bovine serum (FBS; GE Healthcare, USA). Reactions were quenched in urea (8M) and immediately frozen in liquid nitrogen, prior to analysis of thawed samples in 12% PAAG/8M urea gels, using Tris-Borate-EDTA (TBE) as running buffer, Stains-All (MP Biomedicals, USA) and photographic gel documentation (VilberLourmat, France).

| Substance | Decrease in miR-21 level (miR-21; RLS40 cells, 1 µM, 24 h after transfection, normalized to U6) [fold] | Reduction in miR-21 level (miR-21; single treatment of tumor cells prior to transplantation) [%] | Necrosis of melanoma B16 cells (Annexin V-FITC-/PI+) (B16 melanoma cells; 1 µM with Lipofectamine, 24, 48, 72 h after transfection, maximum extent, flow cytometry) | Cells with signs of apoptosis (early and late) (B16 melanoma cells; 1 µM with Lipofectamine, 48 h after transfection (maximum), mean of four independent experiments) [%] | Apoptotic cells relative to intact B16 cells (B16 melanoma cells; 1 µM, 48 h after transfection) | Survival (intact) in serum-containing medium [1] |
| --- | --- | --- | --- | --- | --- | --- |
| acetyl-[(LeuArg)2Gly]2-aminohexyl-AGTCTGATAAGCTACAAGTCAGCGAAAGCTGACTTG [miR-21-miRNase, peptide acetyl-[(LeuArg)2Gly]2 conjugated through aminohexyl linker to 5′-end of miR-21-targeted hairpin oligodeoxyribonucleotide] | 2 | 50 | up to 7% | 28 | six | – |
| h-ODN: miR-21-targeted hairpin deoxyribooligonucleotide AGTCTGATAAGCTACAAGTCAGCGAAAGCTGACTTG, unconjugated with the peptide (DNA, backbone and methylation of C not given here; hairpin at 3' end, unconjugated) | – | – | – | – | – | a few hours |
